# Experimental data taken from PubChem BioAssay AID652280 (Broad Institute, 2013).
# Inconclusive results are not listed. Activity calls are given as the source filed them. No rule for the calls is given here.
# Test: mouse embryonic fibroblast toxicity – cell-based, plate reader, dry powder, set 2, cytotoxicity control, dose response (AID 652280)
# Conditions: NIH/3T3 mouse fibroblast toxicity, plate reader; at 16 µM (top of the series)
row,Structure (SMILES),"activity change, negative = toxicity"
1,CC(C)N1CC2(CN(Cc3ccccc3Cl)C2)Oc2c(NC(=O)c3ccncc3)cccc2C1=O,-16.5% (inactive)
2,Cc1cccc(-c2ccc([C@H]3[C@H](CO)N4CCCCN(C(=O)c5cccnc5)C[C@@H]34)cc2)c1,-10.6% (inactive)
3,CC(C)N1C[C@H](C)[C@@H](CN(C)Cc2ccc(Cl)cc2)Oc2c(C(=O)Nc3ccncc3)cccc2C1=O,-7.6% (inactive)
4,CC(C)N1C[C@@H](CNCc2ccc(Oc3ccccc3)cc2)Oc2c(NC(=O)c3ccncc3)cccc2C1=O,-29.5% (inactive)
5,O=C(CN1CCOCC1)N1CCCCN2[C@@H](CO)[C@H](c3ccc(Br)cc3)[C@@H]2C1,2.42% (inactive)
6,CN(C)CC#Cc1cccc(-c2nc(C(=O)N3CCN(C)CC3)cc3c2[C@H](CCO)N(S(=O)C(C)(C)C)C3)c1 (stereo not given in full),16.4% (inactive)
7,C[C@H]1CN([C@@H](C)CO)C(=O)c2cccc(NC(=O)c3ccncc3)c2O[C@@H]1CN(C)Cc1ccc(F)cc1Cl,-10.1% (inactive)
8,CN(C)C(=O)c1cccc(-c2ccc([C@@H]3[C@@H](CO)N4CCCCN(C(=O)C5CCC5)C[C@H]34)cc2)c1,5.21% (inactive)
9,CC(C)N1C[C@@H](C)[C@H](CN(C)C(=O)OC(C)(C)C)Oc2c(C(N)=O)cccc2C1=O,12.8% (inactive)
10,C[C@@H]1CCCCO[C@H](CN(C)Cc2ccc(Cl)c(Cl)c2)[C@@H](C)CN([C@H](C)CO)C(=O)c2cc(N(C)C)ccc2O1,82.1% (inactive)
11,CC(C)(C)S(=O)N1Cc2cc(C(=O)NCc3ccc4c(c3)OCO4)nc(-c3cccc(C#CCC4CCCC4)c3)c2[C@H]1CCO (stereo not given in full),96.9% (inactive)
12,CNC[C@@H]1Oc2c(NC(=O)c3ccncc3)cccc2C(=O)N(C(C)C)C[C@H]1C,1.96% (inactive)
13,CN(C)CC#Cc1cccc(-c2nc(C(=O)N[C@@H]3CCN(Cc4ccccc4)C3)cc3c2[C@@H](CCO)N(S(=O)C(C)(C)C)C3)c1 (stereo not given in full),0.065% (inactive)
14,CC(C)N1CC[C@H](CN(C)Cc2ccc(Oc3ccccc3)cc2)Oc2c(NC(=O)c3ccncc3)cccc2C1=O,-22.1% (inactive)
15,CC(C)N1C[C@@H](C)[C@H](CN(C)Cc2ccc(OCCCC(F)(F)C(F)(F)C(F)(F)C(F)(F)C(F)(F)C(F)(F)C(F)(F)C(F)(F)F)cc2)Oc2c(NC(=O)c3ccncc3)cccc2C1=O,22.1% (inactive)
16,CCOC(=O)c1cc2c(c(-c3cccc(C#CCN(C)C)c3)n1)[C@@H](CCO)N(S(=O)C(C)(C)C)C2 (stereo not given in full),21.1% (inactive)
17,CC(C)N1CC2(CN(Cc3ccccc3)C2)Oc2c(NC(=O)c3ccncc3)cccc2C1=O,-2.24% (inactive)
18,CC(C)N1CC2(CN(Cc3ccccn3)C2)Oc2c(NC(=O)c3ccncc3)cccc2C1=O,-3.3% (inactive)
19,CC(C)N1C[C@@H](CN(C)Cc2ccc(Cl)cc2)Oc2c(NC(=O)c3ccnnc3)cccc2C1=O,2.62% (inactive)
20,CC(C)N1C[C@@H](CN(C)Cc2ccc(Cl)cc2)Oc2c(C(=O)Nc3ccncc3)cccc2C1=O,-18.4% (inactive)
21,CN(C)CC(=O)N1CCCCN2[C@@H](CO)[C@H](c3ccc(-c4cccnc4)cc3)[C@@H]2C1,0.846% (inactive)
22,CC(C)(C)S(=O)N1Cc2cc(C(=O)NCc3ccc4c(c3)OCO4)nc(-c3cccc(-c4cc5ccccc5o4)c3)c2[C@H]1CCO (stereo not given in full),-5.85% (inactive)

row,Structure (SMILES),"activity change, negative = toxicity"
1,COCC(=O)N1CCCCN2[C@@H](CO)[C@H](c3ccc(-c4cccc(C)c4)cc3)[C@@H]2C1,-12.3% (inactive)
2,CC(C)N1C[C@H](CNCc2ccc(Oc3ccccc3)cc2)Oc2c(NC(=O)c3ccncc3)cccc2C1=O,5.88% (inactive)
3,COC[C@H](C)N1C[C@H](C)[C@@H](CN(C)Cc2ccc(Cl)cc2)Oc2c(NC(=O)c3ccncc3)cccc2C1=O,2.38% (inactive)
4,CN(C)C(=O)c1ccc(-c2ccc([C@H]3[C@H](CO)N4CCCCN(C(=O)C5CCCC5)C[C@@H]34)cc2)cc1,-15.7% (inactive)
5,CC(C)N1C[C@H](CN2Cc3ccccc3C2)Oc2c(NC(=O)c3ccncc3)cccc2C1=O,1.03% (inactive)
6,COc1ccc(S(=O)(=O)N(C)C[C@H]2OCCCC[C@H](C)Oc3ccc(N(C)C)cc3C(=O)N([C@H](C)CO)C[C@@H]2C)cc1,10% (inactive)
7,O=C(CN1CCOCC1)N1CCCCN2[C@@H](CO)[C@H](c3ccc(-c4ccccc4)cc3)[C@@H]2C1,-1.37% (inactive)
8,CC(C)N1C[C@@H](CN(C)Cc2ccc(Cl)cc2)Oc2c(NC(=O)c3ccnn3C)cccc2C1=O,5.57% (inactive)
9,CC(C)N1C[C@@H](C)[C@H](CN(C)C(=O)OC(C)(C)C)Oc2c(C(=O)Nc3ccncc3)cccc2C1=O,-10.9% (inactive)
10,CCOC(=O)c1cc2c(c(-c3cccc(C#CCN(C)C)c3)n1)[C@H](CCO)N(S(=O)C(C)(C)C)C2 (stereo not given in full),-9.39% (inactive)
11,CC(C)N1C[C@@H](CN)Oc2c(NC(=O)c3ccncc3)cccc2C1=O,22.7% (inactive)
12,C[C@H]1CN([C@@H](C)CO)C(=O)c2cccc(NC(=O)c3ccncc3)c2O[C@@H]1CN(C)Cc1ccc(F)c(Cl)c1,-32.5% (inactive)
13,CC(C)N1C[C@H](C)[C@@H](CN(C)Cc2ccc(Cl)cc2)Oc2c(cccc2-c2nnn(-c3ccncc3)n2)C1=O,65.7% (inactive)
14,CC(C)N1C[C@H](C)[C@@H](CN(C)Cc2ccc(Cl)cc2)Oc2c(NC(=O)c3ccncc3)cccc2C1=O,-13.4% (inactive)
15,CN(C)C(=O)c1cccc(-c2ccc([C@H]3[C@H](CO)N4CCCCN(C(=O)C5CCCC5)C[C@@H]34)cc2)c1,32.1% (inactive)
16,Cc1ccccc1CN(C)C[C@H]1Oc2c(NC(=O)c3ccncc3)cccc2C(=O)N([C@@H](C)CO)C[C@@H]1C,-4.8% (inactive)
17,Cc1cccc(CN(C)C[C@H]2Oc3c(NC(=O)c4ccncc4)cccc3C(=O)N([C@@H](C)CO)C[C@@H]2C)c1,-19.1% (inactive)
18,CN1CCCCN2[C@@H](CO)[C@H](c3ccc(Br)cc3)[C@@H]2C1,-2.42% (inactive)
19,CN(C)C(=O)c1cccc(-c2ccc([C@@H]3[C@H]4CN(C(=O)C5CCC5)CCCCN4[C@H]3CO)cc2)c1,5.4% (inactive)
20,CC(C)N1C[C@@H](CN(C)Cc2ccc(Cl)cc2)Oc2c(NC(=O)c3ncn[nH]3)cccc2C1=O,0.096% (inactive)
21,OC[C@H]1[C@H](c2ccc(Br)cc2)[C@@H]2CN(Cc3ccccn3)CCCCN12,5.37% (inactive)
22,C[C@@H](CO)N1CC[C@H](CNC(=O)OC(C)(C)C)Oc2c(cccc2[N+](=O)[O-])C1=O,16.7% (inactive)

row,Structure (SMILES),"activity change, negative = toxicity"
1,CC(C)N1C(=O)c2cccc(NC(=O)c3ccncc3)c2O[C@H](CN(C)Cc2ccc(Cl)cc2)[C@H]1C,-1.14% (inactive)
2,C[C@H]1CN([C@@H](C)CO)C(=O)c2cccc(NC(=O)c3ccncc3)c2O[C@@H]1CN(C)Cc1ccc(Cl)c(F)c1,-25.3% (inactive)
3,CC(C)N1C[C@@H](CN(C)Cc2ccc(Cl)cc2)Oc2c(NC(=O)c3ccccc3)cccc2C1=O,9.38% (inactive)
4,CN(C)C(=O)c1ccc(-c2ccc([C@H]3[C@H](CO)N4CCCCN(C(=O)C5CCC5)C[C@@H]34)cc2)cc1,-17% (inactive)
5,COc1ccc(CN(C)C[C@@H]2Oc3c(NC(=O)c4ccncc4)cccc3C(=O)N([C@@H](C)CO)C[C@H]2C)cc1,-22.2% (inactive)
6,CN(C)C(=O)c1cccc(-c2ccc([C@H]3[C@H]4CN(C(=O)C5CCC5)CCCCN4[C@H]3CO)cc2)c1,24.3% (inactive)
7,CC(C)N1C[C@@H](C)[C@H](CN(C)C(=O)OC(C)(C)C)Oc2c(C#N)cccc2C1=O,-6.53% (inactive)
8,CN(C)C(=O)c1cccc(-c2ccc([C@H]3[C@@H](CO)N4CCCCN(C(=O)C5CCC5)C[C@H]34)cc2)c1,9.2% (inactive)
9,C[C@H]1CN([C@@H](C)CO)C(=O)c2cccc(NC(=O)c3ccncc3)c2O[C@@H]1CN(C)Cc1ccc(Cl)cc1,-41.2% (inactive)
10,CC(C)N1CC2(CN(Cc3ccc(F)cc3)C2)Oc2c(NC(=O)c3ccncc3)cccc2C1=O,-0.418% (inactive)
11,CN(C)C(=O)c1ccc(-c2ccc([C@H]3[C@H](CO)N4CCCCN(CC5CC5)C[C@@H]34)cc2)cc1,24.4% (inactive)
12,C[C@@H]1CN([C@@H](C)CO)C(=O)c2cccc(NC(=O)c3ccncc3)c2O[C@H]1CN(C)Cc1cccc(Cl)c1,-5.45% (inactive)
13,C[C@H]1CN([C@@H](C)CO)C(=O)c2cccc(NC(=O)c3ccncc3)c2O[C@@H]1CN(C)Cc1cc(Cl)cc(Cl)c1,15% (inactive)
14,CCC(=O)N1CC[C@@H]2[C@H]1c1cc(Br)ccc1N(C)[C@@H]2CO,-1.86% (inactive)
15,C[C@H]1CN([C@@H](C)CO)C(=O)c2cccc(NC(=O)c3ccncc3)c2O[C@@H]1CN(C)Cc1ccc(Oc2ccccc2)cc1,12.9% (inactive)
16,CN(C)C(=O)c1cccc(-c2ccc([C@@H]3[C@H](CO)N4CCCCN(C(=O)C5CCC5)C[C@@H]34)cc2)c1,-3.74% (inactive)
17,C[C@H]1CN([C@@H](C)CO)C(=O)c2cccc(NC(=O)c3ccncc3)c2O[C@@H]1CN(C)Cc1cccc(C(F)(F)F)c1,-10.7% (inactive)
18,COc1ccccc1CN(C)C[C@H]1Oc2c(NC(=O)c3ccncc3)cccc2C(=O)N([C@@H](C)CO)C[C@@H]1C,-28.8% (inactive)
19,CC(C)N1CC[C@@H](CNC(=O)OC(C)(C)C)Oc2c(NC(=O)c3ccncc3)cccc2C1=O,-8.28% (inactive)
20,CC(C)N1CC2(CN(Cc3ccc(Cl)cc3)C2)Oc2c(NC(=O)c3ccncc3)cccc2C1=O,-2.46% (inactive)
21,CC(C)N1C[C@H](C)[C@@H](CN(C)Cc2ccc(Cl)c(Cl)c2)Oc2c(cccc2-c2nn[nH]n2)C1=O,-0.771% (inactive)
